Measurements from patent publication US20240408096A1, “DOSING REGIMENS FOR ORAL ALK2 KINASE INHIBITORS” (BioCryst Pharmaceuticals, Inc., priority 2020, published 2024).
“Also recorded” adds a separate entry of the source.

What was measured:
[1] = safety pharmacology studies (CNS, respiratory, cardiovascular); format: in vivo; settings: HEDs exceeding likely human daily clinical dose ranges (5 to 200 mg)
[2] = Phase 1 Part 1 (SAD) plasma PK incl. food effect; format: in vivo, human; settings: for AUC0-24, geometric least-squares mean / AUC0-inf, geometric least-squares mean / AUC0-last, geometric least-squares mean / Cmax, geometric least-squares mean: 15 mg single dose; for AUC0-24 / AUC0-inf / AUC0-last / Cmax / Tmax / t1/2: Part 1 SAD; for AUC0-24 / AUC0-inf / AUC0-last / Cmax: geometric mean (CV%); for Tmax / t1/2: median
Description: (§1) Four sequential SAD cohorts were dosed.
Escalation to the next higher dose level in Part 1 occurred only after satisfactory review of clinical safety and pharmacokinetic data. […] Subjects received the same study drug and dose (Compound A or placebo) in both dosing periods.
For each cohort of Part 1, the daily dose of study drug was administered as a single dose (1 time daily or QD). In Part 1 of the study, following a screening period to determine eligibility, subjects in each cohort entered the Phase 1 clinical research unit (CRU) on the afternoon of Day −1. Study eligibility was re-confirmed upon admission to the CRU, and subjects remained in the CRU overnight prior to dosing on Day 1. Following Day 1, subjects remained in the CRU for an additional 72 hours post-dose (i.e., discharge on Day 4) to enable collection of plasma and urine for PK samples and other study assessments. Subjects were discharged from the CRU following plasma PK sample collection on Day 4 and returned on Day 16 (+2 days) for a final follow-up visit.
Serial venous blood samples were withdrawn via an indwelling cannula or by venipuncture according to the schedule in Tables 4 and 5 for Parts 1 and 2, respectively. Samples were collected into 4 mL lithium heparin tubes. The acceptable deviations from the nominal blood sampling times in Part 1 and Part 2 are as follows: the pre-dose blood sample will be taken ≤1 hour before dosing; 0 to 1 hour post-dose samples will be taken within +2 minutes of the nominal post-dose sampling time; >1 to 12 hours post-dose samples will be taken within +10 minutes of the nominal post-dose sampling time; and >12 hours post-dose samples will be taken within +30 minutes of the nominal post-dose sampling time if subjects are resident in the clinic. […]
In all derivations of PK parameters, 0 will be substituted for concentrations below the quantification limit (BQL) of the assay. Samples that are BQL but are between 2 samples with detectable concentrations will be excluded from PK analysis.
Dose proportionality was evaluated over all fasted doses within a study part based upon AUC0-inf (Part 1), AUCtau (Part 2), AUC0-t, and Cmax using the power model. The analysis was performed for Day 1 (Parts 1 and 2) and Day 7 (Part 2).
Dose proportionality for PK parameters was assessed by restricted maximum likelihood using SAS PROC MIXED (SAS STAT software, Cary N.C.). The mean slope was estimated from the power model and the corresponding 90% confidence interval (CI) calculated. Dose proportionality was also examined using an analysis of variance (ANOVA) method, where PK parameters for each dose were compared with a reference dose on a pair-wise basis. The ratio of geometric least squares (GLS) means and the corresponding 90% CI was estimated for each PK parameter of interest.
Mixed-effects models were constructed with treatment fitted as a fixed effect and subject fitted as a random effect to provide point estimates for the ratios of PK parameters under fed relative to fasted conditions and their associated 90% CI.

[3] = Phase 1 Part 1 (SAD) urinary PK; format: in vivo, human; settings: for CLR,0-6 / CLR,6-12 / CLR,12-24 / Cum % excreted0-72 / CumAe0-72 / CLR,24-48: Part 1 SAD, geometric mean (CV%); for CumAe0-72: urine 0 to 72 hours
Description: as §1
Urine samples were collected according to the schedule in Tables 4 and 5 for Parts 1 and 2, respectively. The pre-dose sample on Day 1 was collected any time in the 2 hours prior to dosing. A 30-minute window was allowed around collection intervals.

[4] = plasma protein binding, monkey; format: in vitro ADME; settings: in vitro
[5] = plasma protein binding, human; format: in vitro ADME; settings: in vitro
[6] = Part 1 cohort 4, 15 mg single dose

AUC0-24, geometric least-squares mean ([2]; fasted): 1975,63 ng · h/mL
AUC0-inf, geometric least-squares mean ([2]; fasted): 2075.34 ng·h/mL
AUC0-last, geometric least-squares mean ([2]; fasted): 2019.55 ng·h/mL
Cmax, geometric least-squares mean ([2]; fasted): 272.80 ng/mL
AUC0-24, geometric least-squares mean ([2]; fed): 1742.05 ng·h/mL
AUC0-inf, geometric least-squares mean ([2]; fed): 2087.05 ng·h/mL
AUC0-last, geometric least-squares mean ([2]; fed): 2015.24 ng·h/mL
Cmax, geometric least-squares mean ([2]; fed): 199.50 ng/mL
median time to maximum concentration (Tmax) ([2]; Part 1, all fasted cohorts): approximately 2 hours
AUC0-24 ([2]; 5 mg single oral dose, fasted): 686.9 (30.7) ng · h/mL
AUC0-inf ([2]; 5 mg single oral dose, fasted): 755.7 (29.9) ng · h/mL
AUC0-last ([2]; 5 mg single oral dose, fasted): 717.0 (31.3) ng · h/mL
Cmax ([2]; 5 mg single oral dose, fasted): 94.24 (45.2) ng/mL
Tmax ([2]; 5 mg single oral dose, fasted): 2.011 h
t1/2 ([2]; 5 mg single oral dose, fasted): 6.833 h
AUC0-24 ([2]; 10 mg single oral dose, fasted): 1545 (18.9) ng · h/mL
AUC0-inf ([2]; 10 mg single oral dose, fasted): 1662 (17.3) ng · h/mL
AUC0-last ([2]; 10 mg single oral dose, fasted): 1579 (18.8) ng · h/mL
Cmax ([2]; 10 mg single oral dose, fasted): 234.3 (26.1) ng/mL
Tmax ([2]; 10 mg single oral dose, fasted): 2.013 h
t1/2 ([2]; 10 mg single oral dose, fasted): 5.753 h
AUC0-24 ([2]; 15 mg single oral dose, fasted): 1976 (16.6) ng · h/mL
AUC0-inf ([2]; 15 mg single oral dose, fasted): 2214 (24.3) ng · h/mL
AUC0-last ([2]; 15 mg single oral dose, fasted): 2178 (24.8) ng · h/mL
Cmax ([2]; 15 mg single oral dose, fasted): 272.8 (42.5) ng/mL
Tmax ([2]; 15 mg single oral dose, fasted): 2.009 h
t1/2 ([2]; 15 mg single oral dose, fasted): 7.639 h
AUC0-24 ([2]; 15 mg single oral dose, fed): 1742 (17.6) ng · h/mL
AUC0-inf ([2]; 15 mg single oral dose, fed): 1978 (21.4) ng · h/mL
AUC0-last ([2]; 15 mg single oral dose, fed): 1898 (24.3) ng · h/mL
Cmax ([2]; 15 mg single oral dose, fed): 199.5 (41.2) ng/mL
Tmax ([2]; 15 mg single oral dose, fed): 4.023 h
t1/2 ([2]; 15 mg single oral dose, fed): 6.688 h
AUC0-24 ([2]; 25 mg single oral dose, fasted): 3188 (14.2) ng · h/mL
AUC0-inf ([2]; 25 mg single oral dose, fasted): 3517 (17.0) ng · h/mL
AUC0-last ([2]; 25 mg single oral dose, fasted): 3475 (17.8) ng · h/mL
Cmax ([2]; 25 mg single oral dose, fasted): 474.1 (37.1) ng/mL
Tmax ([2]; 25 mg single oral dose, fasted): 2.071 h
t1/2 ([2]; 25 mg single oral dose, fasted): 7.502 h
GLSM AUC0-last and GLSM AUC0-inf fasted vs. fed [2, 6]: approximately equivalent
Tmax, median of paired differences (95% CI) fed vs. fasted [2, 6]: 2.00 (0.99, 10.00)
decrease of GLSM AUC0-24 after high-fat meal vs fasted [2, 6]: 12%
decrease of GLSM Cmax after high-fat meal vs fasted [2, 6]: 27%
cumulative amount of parent compound excreted in the urine ([3]; Part 1, single doses 5 to 25 mg, all cohorts): less than 0.3 % of the administered dose
CLR,0-6 ([3]; 5 mg): 23.63 (28.3) mL/h
CLR,6-12 ([3]; 5 mg): 14.61 (92.8) mL/h
CLR,12-24 ([3]; 5 mg): 8.576 (263,3) mL/h
Cum % excreted0-72 ([3]; 5 mg): 0.2668 (43.6) %
CumAe0-72 ([3]; 5 mg): 13,340 (43.6) ng
CLR,0-6 ([3]; 10 mg): 9.499 (79.6) mL/h
CLR,6-12 ([3]; 10 mg): 6.137 (93.2) mL/h
CLR,12-24 ([3]; 10 mg): 4.759 (56,5) mL/h
Cum % excreted0-72 ([3]; 10 mg): 0.1206 (84.0) %
CumAe0-72 ([3]; 10 mg): 12,060 (84.0) ng
CLR,0-6 ([3]; 15 mg fasted): 12.84 (56.2) mL/h
CLR,6-12 ([3]; 15 mg fasted): 6.793 (98.8) mL/h
CLR,12-24 ([3]; 15 mg fasted): 8.008 (114.1) mL/h
CLR,24-48 ([3]; 15 mg fasted): 7.674 (80.2) mL/h
Cum % excreted0-72 ([3]; 15 mg fasted): 0.1409 (79.5) %
CumAe0-72 ([3]; 15 mg fasted): 21,130 (79.5) ng
CLR,0-6 ([3]; 25 mg): 15.98 (99.4) mL/h
CLR,6-12 ([3]; 25 mg): 10.56 (138.2) mL/h
CLR,12-24 ([3]; 25 mg): 9.785 (145.0) mL/h
CLR,24-48 ([3]; 25 mg): 10.44 (87.9) mL/h
Cum % excreted0-72 ([3]; 25 mg): 0.1928 (87.0) %
CumAe0-72 ([3]; 25 mg): 48,210 (87.0) ng
plasma protein binding [4]: ≥ 99.9%
plasma protein binding [5]: ≥ 99.9%
SMILES: COc1cc(-n2cnc(Nc3nc(N4CCC[C@H]4C(N)=O)nc4sccc34)c2)cc(OC)c1OC.O=C(O)CC(O)(CC(=O)O)C(=O)O [Compound A]
adverse central nervous system, respiratory, or cardiovascular issues [1]: no adverse central nervous system, respiratory, or cardiovascular issues
detectability in plasma ([2]; Part 1, all cohorts except cohort 1 (5 mg dose)): remained detectable over the entire 72-hour data collection period
dose proportionality of plasma exposure ([2]; Part 1, single oral doses 5 to 25 mg, healthy subjects): exhibits dose proportionality; also recorded: approximately linear and dose proportional
dose proportionality of single dose Cmax ([2]; Part 1 single ascending oral dose cohorts (FIG. 2)): approximately linear and dose-proportional
dose proportionality of single dose AUC0-24 ([2]; Part 1 single ascending oral dose cohorts (FIG. 3)): approximately linear and dose-proportional
